For this assay, the system named is MCH receptors. In words: MCH receptor activity class (method not given).
Setting [1] is: MCH receptor, class by percent of control at 10^-7 M or IC50.
[2] abbreviates: class by percent of control at 10^-7 M or IC50.
Setting [3] is: MCH receptor activity class 1-3 (percent of control at 10^-7 M or IC50).
The mark [4] stands for this setting: class by percent of control at 10^−7 M or IC50.
[5] abbreviates: activity class 1-3: percent of control at 10^-7 M or IC50.

Molecules are shown by their SMILES.

As for `CN(C)c1cc(N[C@H]2CC[C@@H](CNC(=O)c3ccc(F)c(Cl)c3)CC2)nc2ccccc12` [compound 200], the class under setting [1] was 3 (Class 3 The value of percent of control at 10^−7 M was more than 60% or the value of IC50 was more than 200 nM.).

Take `CN(C)c1cc(N[C@H]2CC[C@@H](CNCCCCc3ccc([N+](=O)[O-])cc3)CC2)nc2ccccc12` [compound 1480]: the class under setting [2] is 3 (Class 3 The value of percent of control at 10^−7 M was more than 60% or the value of IC50 was more than 200 nM.).

`COc1cc(OC)c(NC(=O)N[C@H]2CC[C@@H](Nc3cc(N(C)C)c4ccccc4n3)CC2)cc1Cl` [compound 2157, N-(5-chloro-2,4-dimethoxyphenyl)-N′-(cis-4-{[4-(dimethylamino)quinolin-2-yl]amino}cyclohexyl)urea]: the class under setting [2] was 1 (Class 1: The value of percent of control at 10^−7 M was less than 40% or the value of IC50 was less than 50 nM.).

With `CN(C)c1ccnc(N[C@H]2CC[C@@H](NC(=O)Nc3ccccc3-c3ccccc3)CC2)n1` [compound 2214], the class under setting [2] is on record as 3 (Class 3 The value of percent of control at 10^−7 M was more than 60% or the value of IC50 was more than 200 nM.).

Take `CC(C)CNC(=S)N[C@H]1CC[C@@H](Nc2nc3c(c(N(C)C)n2)CCCC3)CC1` [compound 1944]: under setting [1], the class was 3 (Class 3 The value of percent of control at 10^−7 M was more than 60% or the value of IC50 was more than 200 nM.).

With `CCc1cccc(C)c1NC(=O)NC[C@H]1CC[C@@H](Nc2nc3c(c(N(C)C)n2)CCCC3)CC1` [compound 2454], under setting [3], the class is on record as 1 (Class 1: The value of percent of control at 10^−7 M was less than 40% or the value of IC50 was less than 50 nM.).

For the compound `CN(C)c1cc(N[C@H]2CC[C@@H](NC(=O)/C=C/c3ccccc3)CC2)nc2ccccc12` [compound 26], the class under setting [1] is listed as 3 (Class 3 The value of percent of control at 10^−7 M was more than 60% or the value of IC50 was more than 200 nM.).

As for `CCCc1c(CNC[C@H]2CC[C@@H](Nc3nc4c(c(N(C)C)n3)CCCC4)CC2)cnn1-c1ccccc1` [compound 1510], the class under setting [2] is 1 (Class 1: The value of percent of control at 10^−7 M was less than 40% or the value of IC50 was less than 50 nM.).

On to `CN(C)c1nc(N[C@H]2CC[C@@H](NC(=S)NC(C)(C)CC(C)(C)C)CC2)nc2c1CCCC2` [compound 1954], for which the class under setting [1] is recorded as 3 (Class 3 The value of percent of control at 10^−7 M was more than 60% or the value of IC50 was more than 200 nM.).

For the compound `Cc1ccc([N+](=O)[O-])cc1NC(=O)N[C@H]1CC[C@@H](Nc2cc(N(C)C)c3ccccc3n2)CC1` [compound 2145], the class under setting [2] is 3 (Class 3 The value of percent of control at 10^−7 M was more than 60% or the value of IC50 was more than 200 nM.).

Consider `Cc1cnc(N[C@H]2CC[C@@H](C(=O)N[C@@H](C)c3cccc4ccccc34)CC2)nc1N(C)C` (relative stereo) [compound 2783, cis-4-{[4-(dimethylamino)-5-methylpyrimidin-2-yl]ainino}-N-[(1S)-1-(1-naphthyl)ethyl]cyclohexanecarboxamide], for which the class under setting [4] is 1 (Class 1: The value of percent of control at 10^−7 M was less than 40% or the value of IC50 was less than 50 nM.).

Consider `Cc1c(Cl)cccc1NC(=O)N[C@H]1CC[C@@H](Nc2cc(N(C)C)c3ccccc3n2)CC1` [compound 2115], for which the class under setting [2] is listed as 3 (Class 3 The value of percent of control at 10^−7 M was more than 60% or the value of IC50 was more than 200 nM.).

As for `Cc1cc(NC(=O)NC[C@H]2CC[C@@H](Nc3nc4c(c(N(C)C)n3)CCCC4)CC2)c(C(F)(F)F)o1` [compound 2484], the class under setting [2] was 3 (Class 3 The value of percent of control at 10^−7 M was more than 60% or the value of IC50 was more than 200 nM.).

For the compound `Cc1cccc(C)c1NC(=S)N[C@H]1CC[C@@H](Nc2nc3c(c(N(C)C)n2)CCCC3)CC1` [compound 1741], the class under setting [2] is on record as 3 (Class 3 The value of percent of control at 10^−7 M was more than 60% or the value of IC50 was more than 200 nM.).

Turning to `Cc1nc(N[C@H]2CC[C@@H](NC(=O)c3nccnc3N)CC2)nc(N(C)C)c1C` [compound 2833], the class under setting [4] is 2 (Class 2: The value of percent of control at 10^−7 M was from 40% to 60% or the value of IC′50 was from 50 nM to 200 nM.).

With `C[C@H](CN[C@H]1CC[C@@H](Nc2cc(N(C)C)c3ccccc3n2)CC1)c1cccc(C(O)c2ccccc2)c1` (some centres unmarked) [compound 1461], the class under setting [2] is 3 (Class 3 The value of percent of control at 10^−7 M was more than 60% or the value of IC50 was more than 200 nM.).

In the case of `CN(C)c1nc(N[C@H]2CC[C@@H](NC(=S)Nc3ccc(Br)cc3Cl)CC2)nc2c1CCCC2` [compound 1751], the class under setting [2] is 1 (Class 1: The value of percent of control at 10^−7 M was less than 40% or the value of IC50 was less than 50 nM.).

On to `CN(C)c1cc(N[C@H]2CC[C@@H](CNC(=O)Oc3ccc4ccccc4c3)CC2)nc2ccccc12` [compound 1569], for which, under setting [5], the class is reported as 3 (Class 3 The value of percent of control at 10^−7 M was more than 60% or the value of IC50 was more than 200 nM.).

As for `CN(C)c1ccnc(N[C@H]2CC[C@@H](CNC(=O)c3cc(C(F)(F)F)cc(C(F)(F)F)c3)CC2)n1` [compound 423, N-[(cis-4-{[4-(dimethylamino)pyrimidin-2-yl]amino}cyclohexyl)methyl]-3,5-bis(trifluoromethyl)benzamide], the class (class 1-3 by percent of control at 10^-7 M or IC50) was 2 (Class 2: The value of percent of control at 10^−7 M was from 40% to 60% or the value of IC′50 was from 50 nM to 200 nM.).

Turning to `Cc1ccc(NC(=S)N[C@H]2CC[C@@H](Nc3nccc(N(C)C)n3)CC2)c(C)c1` [compound 2321], under setting [3], the class was 3 (Class 3 The value of percent of control at 10^−7 M was more than 60% or the value of IC50 was more than 200 nM.).

Regarding `COc1ccc(CNC[C@H]2CC[C@@H](Nc3nccc(N(C)C)n3)CC2)c(OC)c1OC` [compound 1253], under setting [2], the class was 1 (Class 1: The value of percent of control at 10^−7 M was less than 40% or the value of IC50 was less than 50 nM.).

As to `Cc1cnc(N[C@H]2CC[C@@H](C(=O)Nc3cccc(F)c3)CC2)nc1N(C)C` [compound 2784, cis-4-{[4-(dimethylamino)-5-methylpyrimidin-2-yl]amino}-N-(3-fluorophenyl)cyclohexanecarboxamide], the class under setting [4] is given as 2 (Class 2: The value of percent of control at 10^−7 M was from 40% to 60% or the value of IC′50 was from 50 nM to 200 nM.).

With `Cc1cccc(C)c1NC(=O)NC[C@H]1CC[C@@H](Nc2cc(N(C)C)c3ccccc3n2)CC1` [compound 2360], the class under setting [3] is listed as 3 (Class 3 The value of percent of control at 10^−7 M was more than 60% or the value of IC50 was more than 200 nM.).

Take `CN(C)c1cc(N[C@H]2CC[C@@H](CNC(=O)OCc3ccccc3)CC2)nc2ccccc12` [compound 1571]: the class under setting [5] is 3 (Class 3 The value of percent of control at 10^−7 M was more than 60% or the value of IC50 was more than 200 nM.).

Take `COc1cc(OC)c(NC(=O)N[C@H]2CC[C@@H](Nc3nccc(N(C)C)n3)CC2)cc1Cl` [compound 2247]: the class under setting [2] is 1 (Class 1: The value of percent of control at 10^−7 M was less than 40% or the value of IC50 was less than 50 nM.).

As for `CN(C)c1ccnc(N[C@H]2CC[C@@H](NC(=O)C3CCc4ccccc4C3)CC2)n1` (relative stereo) [compound 917], under setting [2], the class is listed as 3 (Class 3 The value of percent of control at 10^−7 M was more than 60% or the value of IC50 was more than 200 nM.).

As to `CN(C)c1ccnc(N[C@H]2CC[C@@H](NC(=O)OCc3ccc([N+](=O)[O-])cc3)CC2)n1` [compound 1628], under setting [5], the class is 3 (Class 3 The value of percent of control at 10^−7 M was more than 60% or the value of IC50 was more than 200 nM.).

`CN(C)c1ccnc(N[C@H]2CC[C@@H](CNCc3cc(Cl)cc(Cl)c3)CC2)n1` [compound 1308]: the class under setting [2] is 3 (Class 3 The value of percent of control at 10^−7 M was more than 60% or the value of IC50 was more than 200 nM.).

Consider `CN(C)c1nc(N[C@H]2CC[C@@H](NC(=O)c3ccccc3COc3ccccc3)CC2)nc2c1CCCC2` [compound 1036], for which the class (activity class per percent of control at 10^-7 M or IC50) is 3 (Class 3 The value of percent of control at 10^−7 M was more than 60% or the value of IC50 was more than 200 nM.).

Turning to `CN(C)c1nc(N[C@H]2CC[C@@H](NC(=O)NCc3ccccc3Cl)CC2)nc2c1CCCC2` [compound 1675, N-(2-chlorobenzyl)-N′-(cis-4-{[4-(dimethylamino)-5,6,7,8-tetrahydroquinazolin-2-yl]amino}cyclohexyl)urea], under setting [5], the class is recorded as 2 (Class 2: The value of percent of control at 10^−7 M was from 40% to 60% or the value of IC′50 was from 50 nM to 200 nM.).

Consider `COC(CNC1CCC(Nc2nccc(N(C)C)n2)CC1)c1ccccc1` (centres unmarked) [compound 1517], for which the class under setting [5] is given as 3 (Class 3 The value of percent of control at 10^−7 M was more than 60% or the value of IC50 was more than 200 nM.).

Take `Cc1cnc(N[C@H]2CC[C@@H](NC(=O)N(C)c3ccc(Cl)cc3)CC2)nc1N(C)C` [compound 3027, N-(4-chlorophenyl)-N′-(cis-4-{[4-(dimethylamino)-5-methylpyrimidin-2-yl]amino}cyclohexyl)-N-methylurea]: under setting [4], the class is 1 (Class 1: The value of percent of control at 10^−7 M was less than 40% or the value of IC50 was less than 50 nM.).

As to `Cc1ccc(C(=O)c2ccccc2C(=O)N[C@H]2CC[C@@H](Nc3nccc(N(C)C)n3)CC2)cc1` [compound 898], the class under setting [2] was 3 (Class 3 The value of percent of control at 10^−7 M was more than 60% or the value of IC50 was more than 200 nM.).

Take `CN(C)c1nc(N[C@H]2CC[C@@H](NC(=O)Nc3ccc(I)cc3)CC2)nc2c1CCCC2` [compound 1892]: under setting [2], the class was 3 (Class 3 The value of percent of control at 10^−7 M was more than 60% or the value of IC50 was more than 200 nM.).

On to `Cc1cc(N(C)C)nc(N[C@H]2CC[C@@H](NC(=O)c3ccc(C#N)cc3)CC2)n1` [compound 2958, 4-cyano-N-(cis-4-{[4-(dimethylamino)-6-methylpyrimidin-2-yl]amino}cyclohexyl)benzamide], for which, under setting [4], the class is 1 (Class 1: The value of percent of control at 10^−7 M was less than 40% or the value of IC50 was less than 50 nM.).

For the origin of these results see US20050197350A1, “Novel quinoline, tetrahydroquinazoline, and pyrimidine derivatives and methods of treatment related to the use thereof” (TAISHO PHARMACEUTICAL CO., LTD., priority 2003, published 2005).
